According to publication PMC6264673, “Synthesis and SAR Study of Novel Peptide Aldehydes as Inhibitors of 20S Proteasome” (Molecules, 2011):
Non-standard residues stand in square brackets, D forms with d. Residues, ends and D or L forms follow the SMILES beside them. *: point of attachment. Arg(NO2) = N=C(NCCC[C@H](N)C(=O)O)N[N+](=O)[O-]; 2Nal = N[C@@H](Cc1ccc2ccccc2c1)C(=O)O; Tos = Cc1ccc(S(=O)(=O)*)cc1; Cbz = O=C(OCc1ccccc1)*; Boc = CC(C)(C)OC(=O)*; OBn = c1ccc(CO*)cc1; Bn = c1ccc(C*)cc1; OtBu = CC(C)(C)O*

Target: T1, ChT-L activity of 20S proteasome (Mus musculus, UniProt O09061+O55234)
T1 construct: 20S proteasome purified from mouse liver; from tissue; host or cells: mouse liver
Experiment: Assay for ChT-L activity of 20S proteasome with fluorogenic peptide Suc-Leu-Leu-Val-Tyr-AMC
Format: biochemical
Conditions: for IC50: 20S proteasome purified from mouse liver (1 μg), 50 μM Suc-Leu-Leu-Val-Tyr-AMC, 20 mM Tris-HCl pH 7.8, 37 °C, 1 h; for fold higher ChT-L inhibitory activity than the other Cbz series compounds: comparison within the Cbz series; for ChT-L inhibitory activity compared with the control MG132: result in words, versus positive control MG132
Procedure: Inhibitory activities of peptide aldehydes on the 20S proteasome are assayed in vitro [41]. MG132 was used as the positive control (Table 1).
Assays for proteasome activities. The enzymatic activities of the proteasome were assayed using fluorogenic peptides: Suc-Leu-Leu-Val-Tyr-AMC (Suc represents succinyl and AMC represents […], obtained from Sigma) for ChT-L activity. 20S proteasome purified from mouse liver (1 μg) was incubated with various concentrations of compounds and 50 μM fluorogenic peptides in 20 mM Tris-HCl pH 7.8 (100 μL) at 37 °C for 1 h, respectively. The fluorescence of released AMC was measured by a spectrofluorimeter (Fluostar OPTIMA, BMG Germany) at excitation/emission wavelengths of 380/440 nm and 335/410 nm, respectively. 0.1% DMSO was used as solvent control. Compared with the fluorescence of solvent control, an inhibition rate was calculated and thereafter the IC50 value was deduced.

| Compound | IC50 | fold higher ChT-L inhibitory activity than the other Cbz series compounds | ChT-L inhibitory activity compared with the control MG132 |
| --- | --- | --- | --- |
| CC(C)C[C@@H](C=O)NC(=O)[C@H](CC(C)C)NC(=O)[C@H](CCC(=O)OC(C)(C)C)NC(=O)OCc1ccccc1 [Compound 3d, Cbz-L-Glu(OtBu)-L-leu-L-Leucinal] (Cbz-Glu(OtBu)-Leu-Leu-aldehyde) | 89 ± 20 nM | about 10 fold | much higher activities than the control MG132 |
| CC(C)C[C@@H](C=O)NC(=O)[C@H](CC(C)C)NC(=O)[C@H](CCC(=O)OCc1ccccc1)NC(=O)OC(C)(C)C [Compound 3l, Boc-L-Glu(OBzl)-L-Leu-L-Leucinal] (Boc-Glu(OBn)-Leu-Leu-aldehyde) | > 50000 nM | – | – |
| CC(C)CC(C=O)NC(=O)C(CC(C)C)NC(=O)C(CC(=O)OCc1ccccc1)NC(=O)OC(C)(C)C [Compound 3j, Boc-L-Asp(OBzl)-L-Leu-L-Leucinal] (Boc-Asp(OBn)-Leu-Leu-aldehyde; configuration not given here) | 20300 ± 2050 nM | – | – |
| Cc1ccc(S(=O)(=O)NC(=N)NCCCC(NC(=O)OCc2ccccc2)C(=O)NC(CC(C)C)C(=O)NC(C=O)CC(C)C)cc1 [Compound 3g, Cbz-L-Arg(Tos)-L-leu-L-Leucinal] (Cbz-Arg(Tos)-Leu-Leu-aldehyde; configuration not given here) | > 50000 nM | – | – |
| CC(C)CC(C=O)NC(=O)C(CC(C)C)NC(=O)C(COCc1ccccc1)NC(=O)OC(C)(C)C [Compound 3o, Boc-L-Ser(OBn)-L-Leu-L-Leucinal] (Boc-Ser(Bn)-Leu-Leu-aldehyde; configuration not given here) | 50 ± 2 nM | – | much higher activities than the control MG132 |
| CC(C)CC(C=O)NC(=O)C(CC(C)C)NC(=O)C(NC(=O)OC(C)(C)C)C(C)OCc1ccccc1 [Compound 3p, Boc-L-Thr(OBn)-L-Leu-L-Leucinal] (Boc-Thr(Bn)-Leu-Leu-aldehyde; configuration not given here) | 290 ± 21 nM | – | – |
| Cbz-L-Phe-L-leu-L-Leucinal [Compound 3e] | 850 ± 47 nM | – | – |
| CC(C)C[C@@H](C=O)NC(=O)[C@H](CC(C)C)NC(=O)[C@H](CC(C)C)NC(=O)OCc1ccccc1 [MG132, Cbz-L-Leu-L-Leu-L-Leucinal, reference compound] (Cbz-Leu-Leu-Leu-aldehyde) | 280 ± 60 nM | – | – |
| CC(C)C[C@@H](C=O)NC(=O)[C@H](CC(C)C)NC(=O)[C@H](CCCNC(N)=N[N+](=O)[O-])NC(=O)OCc1ccccc1 [Compound 3f, Cbz-L-Arg(NO2)-L-leu-L-Leucinal] (Cbz-[Arg(NO2)]-Leu-Leu-aldehyde) | > 50000 nM | – | – |
| CC(C)C[C@@H](C=O)NC(=O)[C@H](Cc1ccccc1)NC(=O)[C@H](CCC(=O)OCc1ccccc1)NC(=O)OC(C)(C)C [Compound 3k, Boc-L-Glu(OBzl)-L-Phe-L-Leucinal] (Boc-Glu(OBn)-Phe-Leu-aldehyde) | 7140 ± 1930 nM | – | – |
| CC(C)C[C@@H](C=O)NC(=O)[C@H](Cc1ccccc1)NC(=O)[C@H](CC(=O)OCc1ccccc1)NC(=O)OC(C)(C)C [Compound 3i, Boc-L-Asp(OBzl)-L-Phe-L-Leucinal] (Boc-Asp(OBn)-Phe-Leu-aldehyde) | 4830 ± 2300 nM | – | – |
| CC(C)C[C@@H](C=O)NC(=O)[C@H](CC(C)C)NC(=O)[C@H](Cc1ccc2ccccc2c1)NC(=O)OCc1ccccc1 [Compound 3h, Cbz-L-(2-Naphthyl)alanine-L-Leu-L-Leucinal] (Cbz-[2Nal]-Leu-Leu-aldehyde) | 410 ± 82 nM | – | – |
| CC(C)CC(C=O)NC(=O)C(Cc1ccccc1)NC(=O)C1CCCN1C(=O)OC(C)(C)C [Compound 3m, Boc-L-Pro-L-Phe-L-Leucinal] (Boc-Pro-Phe-Leu-aldehyde; configuration not given here) | > 50000 nM | – | – |
| CC(C)CC(C=O)NC(=O)C(Cc1ccccc1)NC(=O)C(CC(=O)OC(C)(C)C)NC(=O)OCc1ccccc1 [Compound 3a, Cbz-L-Asp(OtBu)-L-Phe-L-Leucinal] (Cbz-Asp(OtBu)-Phe-Leu-aldehyde; configuration not given here) | 210 ± 14 nM | – | – |
| CC(C)CC(C=O)NC(=O)C(CC(C)C)NC(=O)C1CCCN1C(=O)OC(C)(C)C [Compound 3n, Boc-L-Pro-L-Leu-L-Leucinal] (Boc-Pro-Leu-Leu-aldehyde; configuration not given here) | > 50000 nM | – | – |
| CC(C)CC(C=O)NC(=O)C(CC(C)C)NC(=O)C(CC(=O)OC(C)(C)C)NC(=O)OCc1ccccc1 [Compound 3b, Cbz-L-Asp(OtBu)-L-Leu-L-Leucinal] (Cbz-Asp(OtBu)-Leu-Leu-aldehyde; configuration not given here) | 200 ± 35 nM | – | – |
| CC(C)CC(C=O)NC(=O)C(CC(C)C)NC(=O)C(Cc1ccc(OCc2ccccc2)cc1)NC(=O)OC(C)(C)C [Compound 3q, Boc-L-Tyr(OBn)-L-Leu-L-Leucinal] (Boc-Tyr(Bn)-Leu-Leu-aldehyde; configuration not given here) | > 50000 nM | – | – |
| CC(C)C[C@@H](C=O)NC(=O)[C@H](Cc1ccccc1)NC(=O)[C@H](CCC(=O)OC(C)(C)C)NC(=O)OCc1ccccc1 [Compound 3c, Cbz-L-Glu(OtBu)-L-Phe-L-Leucinal] (Cbz-Glu(OtBu)-Phe-Leu-aldehyde) | 28 ± 6 nM | about 10 fold | much higher activities than the control MG132 |
